Data reported in patent US20250387360A1, “Methods and Compositions for Treatment of Addiction” (University of Connecticut, priority 2024, published 2025).

What was measured:
male C57BL/6J mice = test: 4-day DID binge-like ethanol drinking with SCFA supplementation in drinking water; format: in vivo, mouse; details: 200 mM in drinking water 10 days, male mice n=21/group
Description: Male C57BL/6J mice, (RRID: IMSR_JAX: 000664), aged 6-8 weeks, were obtained from Jackson Laboratories (ME, U.S.A) for the study. The mice were housed individually under a reversed 12-hours light/dark cycle, with lights off from […] to 7:00 am. A minimum acclimation period of 2 weeks was provided for all animals before they were randomly assigned to their respective groups. Mice had free access to food (Irradiated chow, Teklad global 18% protein rodent diet, 2918, Inotiv, WI, U.S.A) and deionized water to acclimate to the testing environment. Body weight and daily food and fluid intake were monitored and noted for all animal experiments.
A standard 4-day drinking in the dark (DID) model was used to evaluate binge-like ethanol drinking patterns in mice. A 20% v/v ethanol solution was prepared by diluting 190-proof ethyl alcohol (Sigma, MO, U.S.A) with deionized water. During days 1-3, the water bottles were temporarily removed during the dark cycle of the mice, and the mice were provided with a tube containing the 20% v/v ethanol solution for a duration of two hours. On day four, the assessment of binge-like ethanol consumption took place, where the mice were given access to the 20% v/v ethanol solution for a period of four hours. The volume of fluid in the tube (read to the closest 100 μL) was measured immediately upon placement, and at two hours and four hours into the test. Following the completion of the four hours test, approximately 100 μL of blood was collected through cardiac puncture after CO2 euthanasia. Blood samples were subjected to centrifugation at 10,000 rpm for 10 minutes. The determination of blood ethanol concentrations (BEC) was performed using an Analox AMI Analyzer (Analox Instruments, MA, U.S.A). The quantity of ethanol consumed was then calculated as grams per kilogram of the mouse's body weight.
All SCFA were used in sodium salt form. Briefly, sodium acetate (Sigma, MO, U.S.A), sodium butyrate (Sigma, MO, U.S.A), sodium valerate (Ambeed, IL, U.S.A), and sodium chloride (NaCl; Sigma, Mo, U.S.A) were prepared at 200 mM concentration freshly in drinking water every two days. These concentrations were chosen based on earlier studies conducted in mice [Qi Y., et al., Sodium acetate regulates milk fat synthesis through the activation of GPR41/GPR43 signaling pathway. Frontiers in nutrition 2023, 10:1098715; Daien C I, et al., Gut-derived acetate promotes B10 cells with anti-inflammatory effects. JCI insight 2021, 6 (7)]. All SCFA and NaCl solutions were pH verified to control for acidity effects on daily consumption. SCFAs were given to mice via oral drinking for 10 consecutive days before any experiment, and this regimen was maintained throughout the entire experiment.
General statistical analysis (non-microbiome and non-RNAseq analysis) were conducted using GraphPad Prism 8 (GraphPad, CA, USA, RRID:SCR_002798). For the calculation of ethanol consumption during the DID procedure, it was expressed as grams of ethanol per kilogram of body weight (g/kg body weight), where 20% ethanol intake was determined as follows: multiplying the drinking volume by the ethanol percentage within that volume and the density of ethanol, and then dividing this by the mouse's body weight in kilograms. Normality of data distributions was tested by Shapiro-Wilk test and by Q-Q plots. Levene's test was used to test equality of variances across groups. Unpaired Student's t-tests were used to compare behavioral testing, GABA levels, and histone acetylation measurements between the sodium valerate and NaCl groups. To evaluate the impact of antibiotic cocktail administration on ethanol consumption and BEC between the groups receiving Abx and PBS at baseline and after treatment, a mixed ANOVA test was employed, given repeated measures from the same mouse from the two time points. Similarly, mixed ANOVA tests were applied to compare various SCFA levels before and after Abx administration.

GABA levels = test: GABA ELISA in stool, amygdala and plasma after DID; format: in vivo, mouse; details: 10 days supplementation following DID, vs NaCl
Protocol: GABA levels in plasma, stool, and amygdala samples were determined using an ELISA kit (LDN, Labor Diagnostika Nord, Nordhorn, Germany) following the manufacturer's instructions. Plasma samples were used directly without any additional preparation. For stool and amygdala, samples, they were first thawed and then homogenized in a solution consisting of 0.01N HCl (Thermo Fisher Scientific, MA, U.S.A), ImM EDTA (Thermo Fisher Scientific, MA, U.S.A), and 4 mM sodium metabisulfite (Thermo Fisher Scientific, MA, U.S.A). After homogenization, the samples underwent centrifugation at 3000×g for 5 minutes at 4° C. before GABA estimation. To summarize the assay procedure, plasma, homogenized stool, and amygdala samples, and the kit's standards were all processed on an extraction plate. They were subsequently derivatized using an equalizing reagent and subjected to a standard competitive ELISA conducted in GABA-coated 96-well microtiter strips. The optical density (OD) of the solution within the wells was rapidly read at 450 nm using a 96-well plate reader (iMark™ Microplate Absorbance Reader; Biorad, CA, U.S.A, RRID:SCR_023799). The OD data was employed to determine the GABA concentration via a standard curve.
The levels of GABA in the amygdala were measured next, stool, and blood of the mice that underwent the DID paradigm, comparing those supplemented with sodium valerate to those supplemented with NaCl.

## CCCCC(=O)[O-].[Na+] [sodium valerate]
Male C57BL/6J mice; vs NaCl
  BEC lowered: 53%
  reduction in ethanol consumption: 40%
Male C57BL/6J mice; NaCl control 7.16
  ethanol consumption, median: 4.03 g/kg body weight
GABA levels; n=6 mice/group
  GABA levels in plasma: not significant
GABA levels; p=0.0001
  GABA levels in stool: elevated
GABA levels; p=0.01
  GABA levels in the amygdala: elevated
